Results from ChEMBL document CHEMBL4507297, “Data for DCP probe PF-04457845” (2021).

Tests used:
[1] = test system: Tyrosine-protein kinase ABL1 (Homo sapiens), P00519 [Q252H]; details: Compound concentration 1000.0 nM
[2] = target: Activin receptor type-2A (Homo sapiens) (UniProt P27037); details: Compound concentration 1000.0 nM
[3] = target: Bone morphogenetic protein receptor type-1A (Homo sapiens) (UniProt P36894); details: Compound concentration 1000.0 nM
[4] = target: Bone morphogenetic protein receptor type-2 (Homo sapiens) (UniProt Q13873); details: Compound concentration 1000.0 nM
[5] = target: Serine/threonine-protein kinase B-raf (Homo sapiens) (UniProt P15056); details: Compound concentration 1000.0 nM
[6] = test system: Serine/threonine-protein kinase B-raf (Homo sapiens), P15056 [V600E]; details: Compound concentration 1000.0 nM
Chain of Serine/threonine-protein kinase B-raf (Homo sapiens), P15056 [V600E] (P15056 whole entry V600E): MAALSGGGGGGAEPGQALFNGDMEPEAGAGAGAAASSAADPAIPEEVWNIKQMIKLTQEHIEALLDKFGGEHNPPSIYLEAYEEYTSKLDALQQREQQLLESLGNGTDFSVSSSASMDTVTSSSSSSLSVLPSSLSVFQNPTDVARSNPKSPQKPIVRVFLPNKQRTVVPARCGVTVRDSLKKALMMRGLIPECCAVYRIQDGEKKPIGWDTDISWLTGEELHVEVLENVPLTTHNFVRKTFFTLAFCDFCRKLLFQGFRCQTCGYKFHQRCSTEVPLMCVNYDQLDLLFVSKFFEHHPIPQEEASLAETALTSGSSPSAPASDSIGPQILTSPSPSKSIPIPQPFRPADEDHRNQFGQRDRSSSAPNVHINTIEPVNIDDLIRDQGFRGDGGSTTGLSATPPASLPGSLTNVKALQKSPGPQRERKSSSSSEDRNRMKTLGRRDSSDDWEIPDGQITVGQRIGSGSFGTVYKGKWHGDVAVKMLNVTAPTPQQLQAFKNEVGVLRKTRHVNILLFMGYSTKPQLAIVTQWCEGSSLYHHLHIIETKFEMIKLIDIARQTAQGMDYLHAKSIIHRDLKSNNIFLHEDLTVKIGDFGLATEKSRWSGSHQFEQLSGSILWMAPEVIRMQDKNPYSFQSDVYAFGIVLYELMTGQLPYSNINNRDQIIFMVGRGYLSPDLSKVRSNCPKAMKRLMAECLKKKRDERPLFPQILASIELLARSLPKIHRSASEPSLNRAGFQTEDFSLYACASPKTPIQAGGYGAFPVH

[7] = target: Cyclin-dependent kinase 11A (Homo sapiens) (UniProt Q9UQ88); details: Compound concentration 1000.0 nM
[8] = target: Cyclin-dependent kinase 5 (Homo sapiens) (UniProt Q00535); details: Compound concentration 1000.0 nM
Chain of Cyclin-dependent kinase 5 (Homo sapiens) (Q00535 whole entry, looked up): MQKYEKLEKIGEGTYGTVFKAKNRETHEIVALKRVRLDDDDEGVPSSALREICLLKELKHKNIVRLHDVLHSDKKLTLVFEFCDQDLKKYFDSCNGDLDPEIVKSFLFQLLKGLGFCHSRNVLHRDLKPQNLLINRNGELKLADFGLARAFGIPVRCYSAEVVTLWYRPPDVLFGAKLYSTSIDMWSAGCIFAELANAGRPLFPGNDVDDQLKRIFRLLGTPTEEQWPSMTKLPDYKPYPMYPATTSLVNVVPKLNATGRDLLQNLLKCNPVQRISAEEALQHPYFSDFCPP

[9] = target: Cyclin-dependent kinase 8 (Homo sapiens) (UniProt P49336); details: Compound concentration 1000.0 nM
[10] = target: Dual specificity protein kinase CLK2 (Homo sapiens) (UniProt P49760); details: Compound concentration 1000.0 nM
[11] = target: Macrophage colony-stimulating factor 1 receptor (Homo sapiens) (UniProt P07333); details: Compound concentration 1000.0 nM
Chain of Macrophage colony-stimulating factor 1 receptor (Homo sapiens) (P07333 whole entry, canonical isoform): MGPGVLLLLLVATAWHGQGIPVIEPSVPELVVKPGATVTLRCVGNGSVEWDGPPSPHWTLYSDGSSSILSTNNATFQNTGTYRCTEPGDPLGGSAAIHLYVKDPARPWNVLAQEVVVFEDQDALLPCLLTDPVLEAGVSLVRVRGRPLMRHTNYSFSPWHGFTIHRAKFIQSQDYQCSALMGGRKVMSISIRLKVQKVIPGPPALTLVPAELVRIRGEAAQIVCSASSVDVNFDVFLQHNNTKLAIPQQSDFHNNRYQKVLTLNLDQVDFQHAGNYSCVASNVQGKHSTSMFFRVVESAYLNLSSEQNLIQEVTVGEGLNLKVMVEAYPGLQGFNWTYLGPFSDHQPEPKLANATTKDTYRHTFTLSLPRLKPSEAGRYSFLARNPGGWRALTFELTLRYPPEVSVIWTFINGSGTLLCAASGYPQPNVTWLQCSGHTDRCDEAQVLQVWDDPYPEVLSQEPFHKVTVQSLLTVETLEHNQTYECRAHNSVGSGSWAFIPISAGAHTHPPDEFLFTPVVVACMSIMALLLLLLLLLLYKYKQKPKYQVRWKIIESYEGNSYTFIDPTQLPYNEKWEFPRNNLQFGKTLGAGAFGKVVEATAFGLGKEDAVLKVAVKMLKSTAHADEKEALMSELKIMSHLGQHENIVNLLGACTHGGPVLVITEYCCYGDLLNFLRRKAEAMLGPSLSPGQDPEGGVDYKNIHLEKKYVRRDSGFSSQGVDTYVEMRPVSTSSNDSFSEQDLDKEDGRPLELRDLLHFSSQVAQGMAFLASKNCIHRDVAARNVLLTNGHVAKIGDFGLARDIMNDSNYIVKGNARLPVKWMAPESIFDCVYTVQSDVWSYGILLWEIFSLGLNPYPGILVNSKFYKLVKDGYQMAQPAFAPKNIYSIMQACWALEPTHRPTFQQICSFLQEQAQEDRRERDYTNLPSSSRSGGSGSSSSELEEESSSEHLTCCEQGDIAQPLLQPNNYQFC

[12] = target: Casein kinase I isoform gamma-3 (Homo sapiens) (UniProt Q9Y6M4); details: Compound concentration 1000.0 nM
[13] = target: Serine/threonine-protein kinase 17A (Homo sapiens) (UniProt Q9UEE5); details: Compound concentration 1000.0 nM
[14] = target: Serine/threonine-protein kinase 17B (Homo sapiens) (UniProt O94768); details: Compound concentration 1000.0 nM
[15] = target: Dual specificity tyrosine-phosphorylation-regulated kinase 2 (Homo sapiens) (UniProt Q92630); details: Compound concentration 1000.0 nM
[16] = test system: Epidermal growth factor receptor (Homo sapiens), P00533 [G719S]; details: Compound concentration 1000.0 nM
[17] = target: Fibroblast growth factor receptor 3 (Homo sapiens) (UniProt P22607); details: Compound concentration 1000.0 nM
Chain of Fibroblast growth factor receptor 3 (Homo sapiens) (P22607 23-806 limits assumed): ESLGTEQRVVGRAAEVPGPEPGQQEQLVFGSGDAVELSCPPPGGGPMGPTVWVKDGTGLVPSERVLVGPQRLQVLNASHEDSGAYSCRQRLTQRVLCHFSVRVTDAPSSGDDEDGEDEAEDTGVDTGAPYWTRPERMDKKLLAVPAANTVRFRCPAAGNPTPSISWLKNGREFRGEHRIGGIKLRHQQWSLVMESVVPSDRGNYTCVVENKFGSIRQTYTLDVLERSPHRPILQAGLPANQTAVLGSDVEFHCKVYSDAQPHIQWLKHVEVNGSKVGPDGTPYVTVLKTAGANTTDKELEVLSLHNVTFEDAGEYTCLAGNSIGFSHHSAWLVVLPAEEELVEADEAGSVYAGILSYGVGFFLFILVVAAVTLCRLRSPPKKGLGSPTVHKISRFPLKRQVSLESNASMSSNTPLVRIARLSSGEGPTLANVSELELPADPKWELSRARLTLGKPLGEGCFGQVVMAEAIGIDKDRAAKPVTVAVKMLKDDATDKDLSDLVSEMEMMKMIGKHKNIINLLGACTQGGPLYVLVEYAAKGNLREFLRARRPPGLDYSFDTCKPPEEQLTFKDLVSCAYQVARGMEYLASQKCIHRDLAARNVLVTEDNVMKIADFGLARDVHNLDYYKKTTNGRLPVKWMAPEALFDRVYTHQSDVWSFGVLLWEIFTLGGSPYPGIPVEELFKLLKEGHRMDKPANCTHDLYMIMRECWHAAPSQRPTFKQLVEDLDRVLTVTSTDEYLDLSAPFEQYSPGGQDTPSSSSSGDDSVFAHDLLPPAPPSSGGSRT

[18] = target: Rhodopsin kinase GRK7 (Homo sapiens) (UniProt Q8WTQ7); details: Compound concentration 1000.0 nM
[19] = target: Homeodomain-interacting protein kinase 2 (Homo sapiens) (UniProt Q9H2X6); details: Compound concentration 1000.0 nM
[20] = target: Homeodomain-interacting protein kinase 3 (Homo sapiens) (UniProt Q9H422); details: Compound concentration 1000.0 nM
[21] = test system: Mast/stem cell growth factor receptor Kit (Homo sapiens), P10721 [D816V]; details: Compound concentration 1000.0 nM
[22] = target: Serine/threonine-protein kinase 10 (Homo sapiens) (UniProt O94804); details: Compound concentration 1000.0 nM
[23] = target: MAP kinase-activated protein kinase 5 (Homo sapiens) (UniProt Q8IW41); details: Compound concentration 1000.0 nM
[24] = target: Dual specificity mitogen-activated protein kinase kinase 5 (Homo sapiens) (UniProt Q13163); details: Compound concentration 1000.0 nM
Chain of Dual specificity mitogen-activated protein kinase kinase 5 (Homo sapiens) (Q13163 whole entry): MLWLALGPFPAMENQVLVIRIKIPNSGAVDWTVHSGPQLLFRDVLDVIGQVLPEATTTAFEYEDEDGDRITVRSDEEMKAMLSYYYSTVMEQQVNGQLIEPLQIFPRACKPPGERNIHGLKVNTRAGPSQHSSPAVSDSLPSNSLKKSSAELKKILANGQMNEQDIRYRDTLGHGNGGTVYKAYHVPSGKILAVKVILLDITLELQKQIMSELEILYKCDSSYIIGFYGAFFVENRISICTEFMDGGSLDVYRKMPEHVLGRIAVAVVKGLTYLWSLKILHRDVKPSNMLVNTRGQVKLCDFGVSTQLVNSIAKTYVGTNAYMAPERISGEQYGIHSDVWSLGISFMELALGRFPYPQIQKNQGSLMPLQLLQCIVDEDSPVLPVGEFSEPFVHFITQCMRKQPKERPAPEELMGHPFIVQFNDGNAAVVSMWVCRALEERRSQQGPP

[25] = target: MAP kinase-interacting serine/threonine-protein kinase 2 (Homo sapiens) (UniProt Q9HBH9); details: Compound concentration 1000.0 nM
[26] = target: Mitogen-activated protein kinase kinase kinase 10 (Homo sapiens) (UniProt Q02779); details: Compound concentration 1000.0 nM
Chain of Mitogen-activated protein kinase kinase kinase 10 (Homo sapiens) (Q02779 whole entry, looked up): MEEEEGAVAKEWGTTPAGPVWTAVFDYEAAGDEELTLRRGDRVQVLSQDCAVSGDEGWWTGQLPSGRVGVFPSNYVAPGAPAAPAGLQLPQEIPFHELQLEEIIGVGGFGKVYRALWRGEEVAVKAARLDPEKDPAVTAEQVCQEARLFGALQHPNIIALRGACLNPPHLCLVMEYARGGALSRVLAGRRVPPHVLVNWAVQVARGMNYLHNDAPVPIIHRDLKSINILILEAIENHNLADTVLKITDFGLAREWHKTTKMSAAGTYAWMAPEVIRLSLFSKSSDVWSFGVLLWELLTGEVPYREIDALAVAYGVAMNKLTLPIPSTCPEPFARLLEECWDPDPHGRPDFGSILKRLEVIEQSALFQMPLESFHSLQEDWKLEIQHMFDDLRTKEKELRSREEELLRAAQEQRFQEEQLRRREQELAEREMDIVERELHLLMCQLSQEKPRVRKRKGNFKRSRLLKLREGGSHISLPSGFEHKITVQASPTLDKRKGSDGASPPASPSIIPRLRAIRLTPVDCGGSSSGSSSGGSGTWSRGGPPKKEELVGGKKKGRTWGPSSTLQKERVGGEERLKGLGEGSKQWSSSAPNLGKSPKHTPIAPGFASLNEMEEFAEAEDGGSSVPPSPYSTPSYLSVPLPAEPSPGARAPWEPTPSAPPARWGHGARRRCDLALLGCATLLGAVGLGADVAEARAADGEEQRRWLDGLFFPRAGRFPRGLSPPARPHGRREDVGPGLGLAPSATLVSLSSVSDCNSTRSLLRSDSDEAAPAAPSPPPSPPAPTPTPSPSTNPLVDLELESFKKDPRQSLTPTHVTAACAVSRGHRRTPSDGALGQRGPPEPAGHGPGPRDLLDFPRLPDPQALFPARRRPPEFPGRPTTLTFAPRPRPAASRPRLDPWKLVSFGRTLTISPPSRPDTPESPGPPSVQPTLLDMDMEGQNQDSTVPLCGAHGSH

[27] = target: Serine/threonine-protein kinase mTOR (Homo sapiens) (UniProt P42345); details: Compound concentration 1000.0 nM
[28] = target: Cyclin-dependent kinase 18 (Homo sapiens) (UniProt Q07002); details: Compound concentration 1000.0 nM
Chain of Cyclin-dependent kinase 18 (Homo sapiens) (Q07002 whole entry): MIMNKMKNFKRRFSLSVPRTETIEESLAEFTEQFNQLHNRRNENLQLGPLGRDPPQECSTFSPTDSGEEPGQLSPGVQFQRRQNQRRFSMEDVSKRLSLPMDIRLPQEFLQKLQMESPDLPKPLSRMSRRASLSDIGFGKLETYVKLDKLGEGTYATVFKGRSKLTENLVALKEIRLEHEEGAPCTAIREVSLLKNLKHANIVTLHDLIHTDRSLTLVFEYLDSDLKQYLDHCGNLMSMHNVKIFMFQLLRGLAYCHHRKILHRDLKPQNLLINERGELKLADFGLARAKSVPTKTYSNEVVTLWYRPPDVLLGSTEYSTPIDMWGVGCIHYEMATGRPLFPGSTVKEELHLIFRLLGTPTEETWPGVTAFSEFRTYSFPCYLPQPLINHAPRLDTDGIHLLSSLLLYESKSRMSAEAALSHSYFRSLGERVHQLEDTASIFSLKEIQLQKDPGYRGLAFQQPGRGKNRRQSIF

[29] = target: Platelet-derived growth factor receptor alpha (Homo sapiens) (UniProt P16234); details: Compound concentration 1000.0 nM
[30] = test system: Phosphatidylinositol 4,5-bisphosphate 3-kinase catalytic subunit alpha isoform (Homo sapiens), P42336 [C420R]; details: Compound concentration 1000.0 nM
[31] = test system: Phosphatidylinositol 4,5-bisphosphate 3-kinase catalytic subunit alpha isoform (Homo sapiens), P42336 [E545K]; details: Compound concentration 1000.0 nM
[32] = target: Phosphatidylinositol 4-phosphate 5-kinase type-1 alpha (Homo sapiens) (UniProt Q99755); details: Compound concentration 1000.0 nM
[33] = target: Membrane-associated tyrosine- and threonine-specific cdc2-inhibitory kinase (Homo sapiens) (UniProt Q99640); details: Compound concentration 1000.0 nM
[34] = test system: Proto-oncogene tyrosine-protein kinase receptor Ret (Homo sapiens), P07949 [V804L]; details: Compound concentration 1000.0 nM
[35] = target: Ribosomal protein S6 kinase alpha-4 (Homo sapiens) (UniProt O75676); details: Compound concentration 1000.0 nM
[36] = target: Ribosomal protein S6 kinase alpha-1 (Homo sapiens) (UniProt Q15418); details: Compound concentration 1000.0 nM
[37] = target: NUAK family SNF1-like kinase 2 (Homo sapiens) (UniProt Q9H093); details: Compound concentration 1000.0 nM
[38] = target: Serine/threonine-protein kinase TBK1 (Homo sapiens) (UniProt Q9UHD2); details: Compound concentration 1000.0 nM
[39] = target: TGF-beta receptor type-1 (Homo sapiens) (UniProt P36897); details: Compound concentration 1000.0 nM
[40] = target: Angiopoietin-1 receptor (Homo sapiens) (UniProt Q02763); details: Compound concentration 1000.0 nM
[41] = target: TRAF2 and NCK-interacting protein kinase (Homo sapiens) (UniProt Q9UKE5); details: Compound concentration 1000.0 nM
[42] = target: Vascular endothelial growth factor receptor 2 (Homo sapiens) (UniProt P35968); details: Compound concentration 1000.0 nM
[43] = target: Wee1-like protein kinase 2 (Homo sapiens) (UniProt P0C1S8); details: Compound concentration 1000.0 nM
[44] = target: Serine/threonine-protein kinase 32A (Homo sapiens) (UniProt Q8WU08); details: Compound concentration 1000.0 nM
[45] = target: Histamine H2 receptor (Homo sapiens) (UniProt P25021); details: Compound concentration 10.0 uM
Chain of Histamine H2 receptor (Homo sapiens) (P25021 whole entry): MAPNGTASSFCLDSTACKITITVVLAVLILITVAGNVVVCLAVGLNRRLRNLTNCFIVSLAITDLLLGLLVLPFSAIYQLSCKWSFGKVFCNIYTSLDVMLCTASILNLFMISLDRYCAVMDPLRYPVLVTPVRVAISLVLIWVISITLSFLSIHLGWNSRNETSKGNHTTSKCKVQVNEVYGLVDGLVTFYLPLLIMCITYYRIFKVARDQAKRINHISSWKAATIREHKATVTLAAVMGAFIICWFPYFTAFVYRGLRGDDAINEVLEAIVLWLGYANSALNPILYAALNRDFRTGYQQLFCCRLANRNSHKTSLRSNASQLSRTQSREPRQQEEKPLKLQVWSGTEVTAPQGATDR

O=C(Nc1cccnn1)N1CC(C/C=C/c2cncc(Oc3ccc(C(F)(F)F)cn3)n2)C1
inactive: residual activity [1] 100% | residual activity [2] 100% | residual activity [3] 100% | residual activity [4] 76% | residual activity [5] 100% | residual activity [6] 85% | residual activity [7] 100% | residual activity [8] 100% | residual activity [9] 100% | residual activity [10] 100% | residual activity [11] 100% | residual activity [12] 100% | residual activity [13] 100% | residual activity [14] 100% | residual activity [15] 81% | residual activity [16] 100% | residual activity [17] 97% | residual activity [18] 85% | residual activity [19] 89% | residual activity [20] 74% | residual activity [21] 100% | residual activity [22] 94% | residual activity [23] 76% | residual activity [24] 88% | residual activity [25] 77% | residual activity [26] 100% | residual activity [27] 100% | residual activity [28] 100% | residual activity [29] 80% | residual activity [30] 66% | residual activity [31] 81% | residual activity [32] 100% | residual activity [33] 100% | residual activity [34] 93% | residual activity [35] 100% | residual activity [36] 100% | residual activity [37] 73% | residual activity [38] 72% | residual activity [39] 100% | residual activity [40] 84% | residual activity [41] 92% | residual activity [42] 64% | residual activity [43] 100% | residual activity [44] 100% | inhibition [45] -3.96%

O=C(Nc1cccnn1)N1CCC(=Cc2cccc(Oc3ccc(C(F)(F)F)cn3)c2)CC1
inactive: residual activity [1] 75% | residual activity [2] 100% | residual activity [3] 100% | residual activity [4] 100% | residual activity [5] 93% | residual activity [6] 100% | residual activity [7] 82% | residual activity [8] 92% | residual activity [9] 100% | residual activity [10] 66% | residual activity [11] 95% | residual activity [12] 100% | residual activity [13] 79% | residual activity [14] 100% | residual activity [15] 81% | residual activity [16] 99% | residual activity [17] 83% | residual activity [18] 100% | residual activity [19] 100% | residual activity [20] 100% | residual activity [21] 87% | residual activity [22] 74% | residual activity [23] 100% | residual activity [24] 100% | residual activity [25] 100% | residual activity [26] 100% | residual activity [27] 87% | residual activity [28] 76% | residual activity [29] 100% | residual activity [30] 100% | residual activity [31] 100% | residual activity [32] 100% | residual activity [33] 100% | residual activity [34] 86% | residual activity [35] 98% | residual activity [36] 100% | residual activity [37] 88% | residual activity [38] 100% | residual activity [39] 61% | residual activity [40] 94% | residual activity [41] 100% | residual activity [42] 88% | residual activity [43] 77% | residual activity [44] 100% | inhibition [45] 17.3%
